Where a name gives a salt, the structure may show the parent alone. Read-outs that look alike come from different tables or passages of the source.
Columns and labels:
[1] = tested on: primary cortico-hippocampal neuron cultures; experiment: lactate dehydrogenase (LDH) activity assay in parallel neuron cultures
[2] = tested on: Aβ1-42; experiment: Aβ1-42 content in conditioned medium of primary cortico-hippocampal neuron cultures from Tg2576 mice (ELISA; primary and secondary dose-response screening); type: cell-based, mouse; details: for activity at 100 µM: Mus musculus, Neuron, 24 h, read-out: Ab1-42 (% of ctl); for activity at 100 µM / Ab1-42 (% of ctl): drug 100 μM; for reducing Aβ1-42: <85% of ctl
Procedure, shortened: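 Primary cortico-hippocampal neurons from embryonic Tg2576 mouse brain were seeded on poly-D-lysine-coated 96-well plates at 1.0×10^5 cells per well in serum-free Neurobasal medium with 2% B27, 0.5 mM L-glutamine and 1% penicillin-streptomycin. For primary screening, duplicate wells received 100 μM drug (1% DMSO final). Vehicle-treated cultures served as controls, and Aβ1-42 in conditioned medium was measured by commercial ELISA.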

[3] = tested on: primary cortico-hippocampal neuron cultures; experiment: MTT in primary screening
[4] = tested on: Aβ1-40; experiment: Aβ1-40 content in conditioned medium of primary cortico-hippocampal neuron cultures from Tg2576 mice (ELISA; primary and secondary dose-response screening); type: cell-based, mouse; details: for activity at 100 µM: Mus musculus, Neuron, 24 h, read-out: Ab1-40 (% of ctl); for activity at 100 µM / Ab1-40 (% of ctl): drug 100 μM; for reduced Aβ1-40: <85% of ctl
Procedure, shortened: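 Primary cortico-hippocampal neurons from embryonic Tg2576 mice were plated at 1.0×10^5 cells per well on poly-D-lysine-coated 96-well plates in Neurobasal with 2% B27, 0.5 mM L-glutamine and 1% penicillin-streptomycin. Cultures received drug in 1% DMSO, and Aβ1-40 in the conditioned medium was measured by BioSource ELISA 24 hours after treatment, relative to vehicle controls.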

[5] = Primary Screening, table sorted by Aβ1-40
[6] = primary screening, table sorted by Aβ1-42
[7] = primary screening, Tg2576 neuron cultures, table sorted by Aβ1-42

| Compound | LDH (% of ctl) [1, 5] | LDH (% of ctl) [1, 6] | MTT (% of ctl) [3, 5] | MTT (% of ctl) [3, 6] | activity at 100 µM [2, 5] [%] | activity at 100 µM [2, 7] [%] | activity at 100 µM [4, 5] [%] | activity at 100 µM [4, 7] [%] | reducing Aβ1-42 ([2]; primary screening) | reduced Aβ1-40 ([4]; primary screening) | Ab1-42 (% of ctl) [2, 5] | Ab1-42 (% of ctl) [2, 7] | Ab1-40 (% of ctl) [4, 5] | Ab1-40 (% of ctl) [4, 7] |
| --- | --- | --- | --- | --- | --- | --- | --- | --- | --- | --- | --- | --- | --- | --- |
| CC(C)NCC(O)c1ccc2ccccc2c1 (stereo not drawn) [Pronetalol Hydrochloride] | 108.9 % of ctl | 108.9 % of ctl | 88.8 % of ctl | 88.8 % of ctl | 94.6 | 94.6 | 88 | 88 | – | – | – | – | – | – |
| C=C[C@H]1C[N@@]2CC[C@H]1C[C@@H]2[C@@H](O)c1ccnc2ccc(OC)cc12 [Quinidine Gluconate] | 357.6 % of ctl | 357.6 % of ctl | 46.8 % of ctl | 46.8 % of ctl | 70 | 70 | 63.3 | 63.3 | useful in reducing Aβ1-42 | reduced Aβ1-40 | – | – | – | – |
| CCOC(=O)[C@H](CCc1ccccc1)N[C@@H](C)C(=O)N1[C@H](C(=O)O)C[C@@H]2CCC[C@@H]21 [Ramipril] | 96.4 % of ctl | 96.4 % of ctl | 102.9 % of ctl | 102.9 % of ctl | 105 | 105 | 107 | 107 | – | – | – | – | – | – |
| COC(=O)[C@H]1[C@H]2C[C@H]3c4[nH]c5ccccc5c4CCN3C[C@H]2CC[C@@H]1O [Rauwolscine Hydrochloride] | 109.4 % of ctl | 109.4 % of ctl | 98.0 % of ctl | 98.0 % of ctl | 74.3 | 74.3 | 103 | 103 | useful in reducing Aβ1-42 | – | – | – | – | – |
| CC(C)c1nc(N(C)S(C)(=O)=O)nc(-c2ccc(F)cc2)c1/C=C/[C@@H](O)C[C@@H](O)CC(=O)O [Rosuvastatin] | 298.7 % of ctl | 298.7 % of ctl | 103.8 % of ctl | 103.8 % of ctl | 65.6 | 65.6 | 83.6 | 83.6 | useful in reducing Aβ1-42 | reduced Aβ1-40 | – | – | – | – |
| CCOc1ccccc1OCCN[C@H](C)Cc1ccc(OC)c(S(N)(=O)=O)c1.Cl [Tamsulosin Hydrchloride] | 102.2 % of ctl | 102.2 % of ctl | 96.1 % of ctl | 96.1 % of ctl | – | – | – | – | – | – | 91.8 % of ctl | 91.8 % of ctl | 106.5 % of ctl | 106.5 % of ctl |
| CCCc1nc2c(C)cc(-c3nc4ccccc4n3C)cc2n1Cc1ccc(-c2ccccc2C(=O)O)cc1 [Telmisartan] | 111.3 % of ctl | 111.3 % of ctl | 109.4 % of ctl | 109.4 % of ctl | 112 | 112 | 91.1 | 91.1 | – | – | – | – | – | – |
| COc1ccc2cc1Oc1ccc(cc1)C[C@H]1c3cc(c(OC)cc3CCN1C)Oc1c(OC)c(OC)cc3c1[C@H](C2)N(C)CC3 [Tetrandrine] | 117.6 % of ctl | 117.6 % of ctl | 112.5 % of ctl | 112.5 % of ctl | 25.2 | 25.2 | 4.5 | 4.5 | – | – | – | – | – | – |
| Cn1cnc2c1c(=O)[nH]c(=O)n2C [Theobromine] | 118.3 % of ctl | 118.3 % of ctl | 97.2 % of ctl | 97.2 % of ctl | 117 | 117 | 101 | 101 | – | – | – | – | – | – |
| CCOC(=O)NNc1nncc2ccccc12 [Todralazine Hydrochloride] | 100.6 % of ctl | 100.6 % of ctl | 99.5 % of ctl | 99.5 % of ctl | 110 | 110 | 105 | 105 | – | – | – | – | – | – |
| Cc1cccc(Nc2ccncc2S(=O)(=O)NC(=O)NC(C)C)c1 [Torsemide] | 107.5 % of ctl | 107.5 % of ctl | 99.2 % of ctl | 99.2 % of ctl | 104 | 104 | 107 | 107 | – | – | – | – | – | – |
| CCOC(=O)[C@H](CCc1ccccc1)N[C@@H](C)C(=O)N1[C@H](C(=O)O)C[C@H]2CCCC[C@@H]21 [Trandolapril] | 95.5 % of ctl | 95.5 % of ctl | 91.5 % of ctl | 91.5 % of ctl | 111 | 111 | 137 | 137 | – | – | – | – | – | – |
| NC[C@H]1CC[C@H](C(=O)O)CC1 [Tranexamic Acid] | 112.8 % of ctl | 112.8 % of ctl | 96.8 % of ctl | 96.8 % of ctl | 53.9 | 53.9 | 84.9 | 84.9 | useful in reducing Aβ1-42 | reduced Aβ1-40 | – | – | – | – |

Second part, led by results:

| LDH (% of ctl) [1, 5] | LDH (% of ctl) [1, 6] | MTT (% of ctl) [3, 5] | MTT (% of ctl) [3, 6] | Compound | activity at 100 µM [2, 5] [%] | activity at 100 µM [2, 7] [%] | activity at 100 µM [4, 5] [%] | activity at 100 µM [4, 7] [%] | reducing Aβ1-42 ([2]; primary screening) | reduced Aβ1-40 ([4]; primary screening) | Ab1-42 (% of ctl) [2, 5] | Ab1-42 (% of ctl) [2, 7] | Ab1-40 (% of ctl) [4, 5] | Ab1-40 (% of ctl) [4, 7] |
| --- | --- | --- | --- | --- | --- | --- | --- | --- | --- | --- | --- | --- | --- | --- |
| 113.7 % of ctl | 113.7 % of ctl | 95.2 % of ctl | 95.2 % of ctl | CCCNCC(O)COc1ccccc1C(=O)CCc1ccccc1 (stereo not drawn) [Propafenone Hydrochloride] | 56.4 | 56.4 | 36.3 | 36.3 | useful in reducing Aβ1-42 | reduced Aβ1-40 | – | – | – | – |
| 101.8 % of ctl | 101.8 % of ctl | 102.4 % of ctl | 102.4 % of ctl | CCOC(=O)[C@H](CCc1ccccc1)N[C@@H](C)C(=O)N1Cc2ccccc2C[C@H]1C(=O)O [Quinapril Hydrochloride] | 118 | 118 | 119 | 119 | – | – | – | – | – | – |
| 106.2 % of ctl | 106.2 % of ctl | 99.7 % of ctl | 99.7 % of ctl | COc1cc2ccc(=O)oc2cc1O [Scopoletin] | 109 | 109 | 71.9 | 71.9 | – | reduced Aβ1-40 | – | – | – | – |
| 129.9 % of ctl | 129.9 % of ctl | 93.4 % of ctl | 93.4 % of ctl | CCC(C)(C)C(=O)O[C@H]1C[C@@H](C)C=C2C=C[C@H](C)[C@H](CC[C@@H]3C[C@@H](O)CC(=O)O3)[C@H]21 [Simvastatin] | 122 | 122 | 28 | 28 | – | – | – | – | – | – |
| 100.6 % of ctl | 100.6 % of ctl | 117.0 % of ctl | 117.0 % of ctl | CC(=O)S[C@@H]1CC2=CC(=O)CC[C@]2(C)[C@H]2CC[C@@]3(C)[C@@H](CC[C@@]34CCC(=O)O4)[C@H]12 [Spironolactone] | 70.7 | 70.7 | 60.4 | 60.4 | useful in reducing Aβ1-42 | reduced Aβ1-40 | – | – | – | – |
| 111.1 % of ctl | 111.1 % of ctl | 115.0 % of ctl | 115.0 % of ctl | COc1cc([S+](C)[O-])ccc1-c1nc2ncccc2[nH]1 (stereo not drawn) [Sulmazole] | 93.2 | 93.2 | 116 | 116 | – | – | – | – | – | – |
| 104.4 % of ctl | 104.4 % of ctl | 99.2 % of ctl | 99.2 % of ctl | CC(C)(C)NC[C@H](O)COc1nsnc1N1CCOCC1 [Timolol Maleate] | 104 | 104 | 101 | 101 | – | – | – | – | – | – |
| 112.5 % of ctl | 112.5 % of ctl | 97.5 % of ctl | 97.5 % of ctl | c1ccc(CC2=NCCN2)cc1 [Tolazoline Hydrochloride] | 99.6 | 99.6 | 90.8 | 90.8 | – | – | – | – | – | – |

— patent US20100029654A1, “CARDIOVASCULAR COMPOSITIONS AND USE OF THE SAME FOR THE TREATMENT OF ALZHEIMER'S DISEASE” (MOUNT SINAI SCHOOL OF MEDICINE, priority 2006, published 2010)
